We go through 43 compounds from US9474755B2, “GLP-1 receptor modulators” (Receptos, Inc., priority 2014, dated 2016).

SMILES strings stand for the structures. Where only a bound is given, the exact number is not on record here.

T1 sequence (P43220 24-463): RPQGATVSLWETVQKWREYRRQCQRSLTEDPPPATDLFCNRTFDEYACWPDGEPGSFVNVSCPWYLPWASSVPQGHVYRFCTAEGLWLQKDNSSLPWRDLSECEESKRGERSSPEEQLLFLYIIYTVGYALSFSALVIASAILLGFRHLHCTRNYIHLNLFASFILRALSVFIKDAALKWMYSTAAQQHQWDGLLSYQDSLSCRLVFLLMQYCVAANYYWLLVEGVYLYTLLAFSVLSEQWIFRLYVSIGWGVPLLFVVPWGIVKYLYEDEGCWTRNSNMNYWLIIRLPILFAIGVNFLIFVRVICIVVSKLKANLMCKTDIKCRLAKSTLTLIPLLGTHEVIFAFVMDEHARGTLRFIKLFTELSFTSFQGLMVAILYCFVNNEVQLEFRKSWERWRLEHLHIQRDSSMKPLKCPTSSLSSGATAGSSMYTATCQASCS
T1 sequence (P01275 100-127 partner limits assumed): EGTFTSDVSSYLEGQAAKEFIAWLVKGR

The test concerns the target T1, GLP-1R (Homo sapiens, UniProt P43220).
T1 construct: host or cells: CRE-bla CHO-K1
The test is described as follows: EC20 GLP-1(9-36) PAM cAMP Assay: dose response of compound in the presence of fixed concentration of GLP-1(9-36). Format: cell-based. To be noted: GLP-1R CRE-bla CHO-K1 cells, in presence of fixed concentration of GLP-1(9-36), 30 min at 37° C. The method, then: EC20 GLP-1(9-36) PAM cAMP Assay: Dose Response of Compound in the Presence of Fixed Concentration of GLP-1 (9-36).
GLP-1R CRE-bla CHO-K1 cells cultured in growth medium (DMEM-High glucose, 10% dialyzed FBS, 0.1 mM NEAA, 25 mM Hepes, 100 U/mL penicillin/100 μg/mL streptomycin, 5 μg/mL Blasticidin, 600 μg/mL Hygromycin) were trypsinized and plated in suspension into 384 well white flat bottom plates at 5000 cells/well in 12 μL assay buffer (Hanks Balanced Salt solution, 10 mM Hepes, 0.1% BSA, 10 pH 7.4). A 5× compound dose response curve (12-point) was generated in assay buffer containing 1.5 mM IBMX, 4% DMSO. GLP-1(9-36) was diluted to 4.2 μM in assay buffer containing 1.5 mM IBMX and 4% DMSO. The 5× compound dose response was added (3 μL), followed by 0.5 μL of GLP-1(9-36) and cells were incubated for 30 min at 37° C. Direct detection of cAMP was carried out using DiscoveRx HitHunter cAMP kit according to manufacturer's instructions and luminescence was read using a SpectraMax M5 plate reader. Luminescence was converted to total cAMP using a cAMP standard curve and data was analyzed by non-linear regression to determine the EC50 and Emax.
The EC50 is the concentration at which the effect is half-maximal. With `CC1CC=C(c2cnc(-c3ccc(C[C@H](NC(=O)c4ccc(C(C)(C)C)s4)C(=O)N[C@H](C)C(=O)O)cc3)nc2)CC1` (stereo partly shown) [Compound 55], the EC50 is 2500 to 5000 nM. For the compound `CC(C)(C)c1ccc(C(=O)N[C@@H](Cc2ccc(-c3ncc(C4=CCC(C5CCCCC5)CC4)cn3)cc2)C(=O)N2CC(C(=O)O)C2)s1` (stereo partly shown) [Compound 77], the EC50 is under 500 nM.

In the case of `C[C@@H](NC(=O)[C@H](Cc1ccc(-c2ncc(C3=CCC(c4ccccc4)CC3)cn2)cc1)NC(=O)c1ccc(C(C)(C)C)s1)C(=O)O` (stereo partly shown) [Compound 10], the EC50 was under 500 nM. Under `CCCC1CCN(C2CC=C(c3cnc(-c4ccc(C[C@H](NC(=O)c5ccc(C(C)(C)C)s5)C(=O)N5CC(C(=O)O)C5)cc4)nc3)CC2)CC1` (stereo partly shown) [Compound 46] stands 2500 to 5000 nM; under `CC[C@H]1CC[C@H](C2CC=C(c3cnc(-c4ccc(C[C@H](NC(=O)c5ccc(C(F)(F)F)s5)C(=O)N5CC(C(=O)O)C5)cc4)nc3)CC2)CC1` (stereo partly shown) [Compound 98], under 500 nM.

Take `C[C@@H](NC(=O)[C@H](Cc1ccc(-c2ncc(C3=CCC4(CC3)OCCO4)cn2)cc1)NC(=O)c1ccc(C(C)(C)C)s1)C(=O)O` [Compound 66]: the 50% effective concentration (EC50) fell in the range of 2500 to 5000 nM.

`C[C@@H](NC(=O)[C@H](Cc1ccc(-c2ncc(C3=CCC([C@H]4CC[C@H](C)CC4)CC3)cn2)cc1)NC(=O)c1ccc(C(C)(C)C)s1)C(=O)O` (stereo partly shown) [Compound 112]: the EC50 was under 500 nM.

`CC(C)(C)c1ccc(C(=O)N[C@@H](Cc2ccc(-c3ncc(C4=CCC([C@H]5CC[C@H](C)CC5)CC4)cn3)cc2)C(=O)NCC2CCNC2)s1` (stereo partly shown) [Compound 114]: the EC50 was 500 to 2500 nM. Under `CC[C@H]1CC[C@H](C2CC=C(c3cnc(-c4ccc(C[C@H](NC(=O)c5ccc(C(C)(C)C)s5)C(=O)NCCC(=O)O)cc4)nc3)CC2)CC1` (stereo partly shown) [Compound 107] stands under 500 nM; under `CCCC1CCC(C2CCC(c3cnc(-c4ccc(C[C@H](NC(=O)c5ccc(C(C)(C)C)s5)C(=O)N[C@H](C)C(=O)O)cc4)nc3)CC2)CC1` (stereo partly shown) [Compound 67], under 500 nM; under `CC[C@H]1CC[C@H](C2CC=C(c3cnc(-c4ccc(C[C@H](NC(=O)c5ccc(C(C)(C)C)s5)C(=O)N5CC[C@H](C(=O)O)C5)cc4)nc3)CC2)CC1` (stereo partly drawn) [Compound 110, (S)-1-((S)-2-(5-(tert-butyl)thiophene-2-carboxamido)-3-(4-(5-((1RS,1′r,4′RS)-4′-ethyl-[1,1′-bi(cyclohexan)]-3-en-4-yl)pyrimidin-2-yl)phenyl)propanoyl)pyrrolidine-3-carboxylic acid], under 500 nM. As for `CC(C)(C)c1ccc(C(=O)N[C@@H](Cc2ccc(-c3ncc(C4=CCC([C@H]5CC[C@H](C)CC5)CC4)cn3)cc2)C(=O)N2CC[C@H](C(=O)O)C2)s1` (stereo partly shown) [Compound 116], the concentration for a half-maximal effect (EC50) was under 500 nM. Regarding `CCCC1CCC(C2CCC(c3cnc(-c4ccc(C[C@H](NC(=O)c5ccc(CC)cc5)C(=O)N5CC(C(=O)O)C5)cc4)nc3)CC2)CC1` (stereo partly shown) [Compound 20], the concentration giving a half-maximal response (EC50) lay within 5000 to 10000 nM.

Turning to `COCC1CCC(C2CC=C(c3cnc(-c4ccc(CC(NC(=O)c5ccc(C(C)(C)C)s5)C(=O)N5CC(C(=O)O)C5)cc4)nc3)CC2)CC1` (stereo not shown) [Compound 88], the EC50 is under 500 nM. With `CCCC1CCC(C2CC=C(c3cnc(-c4ccc(C[C@H](NC(=O)c5ccc(CC(C)C)cc5)C(=O)N5CC(C(=O)O)C5)cc4)nc3)CC2)CC1` (stereo partly shown) [Compound 23], the EC50 was under 500 nM. In the case of `CC(C)(C)c1ccc(C(=O)N[C@@H](Cc2ccc(-c3ncc(C4=CCC([C@H]5CC[C@H](C)CC5)CC4)cn3)cc2)C(=O)NCCC(=O)O)s1` (stereo partly shown) [Compound 113], the EC50 is under 500 nM.

Consider `CC[C@H]1CC[C@H](C2CC=C(c3cnc(-c4ccc(C[C@H](NC(=O)c5ccc(C(C)C)s5)C(=O)N5CC(C(=O)O)C5)cc4)nc3)CC2)CC1` (stereo partly shown) [Compound 103], for which the EC50 is under 500 nM.

On to `CCC[C@H]1CC[C@H](C2CCC(c3cnc(-c4ccc(C[C@H](NC(=O)c5ccc(C(C)(C)C)s5)C(=O)N5CC(C(=O)O)C5)cc4)nc3)=C(C)C2)CC1` (stereo partly shown) [Compound 89], for which the EC50 was under 500 nM.

Regarding `CCCC1CCC(C2CC=C(c3cnc(-c4ccc(C[C@H](NC(=O)c5ccc(C(C)(C)C)s5)C(=O)NCCC(=O)O)cc4)nc3)CC2)CC1` (stereo partly shown) [Compound 71], the EC50 was under 500 nM. Regarding `CCCc1ccc(C2CC=C(c3cnc(-c4ccc(C[C@H](NC(=O)c5ccc(C(C)(C)C)s5)C(=O)N5CC(C(=O)O)C5)cc4)nc3)CC2)cc1` (stereo partly shown) [Compound 47], the EC50 is under 500 nM. As to `C[C@@H](NC(=O)[C@H](Cc1ccc(-c2ncc(C3=CCC(C(C)(C)C)CC3)cn2)cc1)NC(=O)c1ccc(C(C)(C)C)s1)C(=O)O` (stereo partly shown) [Compound 56], the concentration for a half-maximal effect (EC50) is under 500 nM.

With `CC[C@H]1CC[C@H](C2CC=C(c3cnc(-c4ccc(C[C@H](NC(=O)c5ccc(C6CC6)s5)C(=O)N5CC(C(=O)O)C5)cc4)nc3)CC2)CC1` (stereo partly shown) [Compound 97], the EC50 was under 500 nM. The result for `CCCC1CC=C(c2cnc(-c3ccc(C[C@H](NC(=O)c4ccc(C(C)(C)C)s4)C(=O)N4CC(C(=O)O)C4)cc3)nc2)CC1` (stereo partly shown) [Compound 39] reads 500 to 2500 nM. On to `CCCCCC1CCC(C2CC=C(c3cnc(-c4ccc(C[C@H](NC(=O)c5ccc(C(C)(C)C)s5)C(=O)N5CCC[C@H]5C(=O)O)cc4)nc3)CC2)CC1` (stereo partly shown) [Compound 5], for which the EC50 was 500 to 2500 nM. For the compound `CCCC1CCC(C2CC=C(c3cnc(-c4ccc(C[C@H](NC(=O)c5ccc(C(C)C)s5)C(=O)N5CC(C(=O)O)C5)cc4)nc3)CC2)CC1` (stereo partly shown) [Compound 17], the EC50 was under 500 nM.

Take `CCC[C@H]1CC[C@H](C2CC=C(c3cnc(-c4ccc(C[C@H](NC(=O)c5ccc(C(C)(C)C)s5)C(=O)N5CC(C(=O)O)C5)cc4)nc3)C(C)C2)CC1` (stereo partly shown) [Compound 87]: the EC50 was under 500 nM. Under `CC(=O)C1CC=C(c2cnc(-c3ccc(C[C@H](NC(=O)c4ccc(C(C)(C)C)s4)C(=O)N[C@H](C)C(=O)O)cc3)nc2)CC1` (stereo partly shown) [Compound 61] stands under 500 nM. Take `CCCCC1CC=C(c2cnc(-c3ccc(C[C@H](NC(=O)c4ccc(C(C)(C)C)s4)C(=O)N4CC(C(=O)O)C4)cc3)nc2)CC1` (stereo partly shown) [Compound 45]: the EC50 lay in the range of 500 to 2500 nM. As to `CC(C)(C)c1ccc(C(=O)N[C@@H](Cc2ccc(-c3ncc(C4=CCC(C(C)(C)C)CC4)cn3)cc2)C(=O)N2CC(C(=O)O)C2)s1` (stereo partly shown) [Compound 36], the EC50 is under 500 nM. As for `CCC[C@H]1CC[C@H](C2CC=C(c3cnc(-c4ccc(C[C@H](NC(=O)c5ccc(CC(C)C)s5)C(=O)N5CC(C(=O)O)C5)cc4)nc3)CC2)CC1` (stereo partly shown) [Compound 118], the EC50 is under 500 nM.

For the compound `CC(C)(C)c1ccc(C(=O)N[C@@H](Cc2ccc(-c3ncc(C4=CCC(C(F)(F)F)CC4)cn3)cc2)C(=O)N2CC(C(=O)O)C2)s1` (stereo partly shown) [Compound 37], the EC50 fell in the range of 500 to 2500 nM. Under `CCCC1CCC(C2CC=C(c3cnc(-c4ccc(C[C@H](NC(=O)c5ccc(C(C)(C)C(F)(F)F)cc5)C(=O)N5CC(C(=O)O)C5)cc4)nc3)CC2)CC1` (stereo partly shown) [Compound 35] stands 500 to 2500 nM; under `CCCC1CCC(C2CC=C(c3cnc(-c4ccc(CC(NC(=O)c5ccc(C(C)(C)C)s5)C(=O)N5CC(C(=O)O)C5)cc4)nc3)CC2)CC1C` (stereo not shown) [Compound 85], under 500 nM. As to `CCC1CCC(C2CC=C(c3cnc(-c4ccc(C[C@H](NC(=O)c5ccc(C(C)(C)C)s5)C(=O)N[C@H](C)C(=O)O)cc4)nc3)CC2)CC1` (stereo partly shown) [Compound 70], the EC50 was under 500 nM. As to `CC(C)CC1CCC(C2CC=C(c3cnc(-c4ccc(C[C@H](NC(=O)c5ccc(C(C)(C)C)s5)C(=O)N5CC(C(=O)O)C5)cc4)nc3)CC2)CC1` (stereo partly shown) [Compound 86], the EC50 is under 500 nM. Take `CCCCCC1CCC(C2CC=C(c3cnc(-c4ccc(C[C@H](NC(=O)c5ccc(C(C)(C)C)s5)C(=O)N5CC[C@H](C(=O)O)C5)cc4)nc3)CC2)CC1` (stereo partly shown) [Compound 3]: the EC50 was under 500 nM. On to `CCCC1CCC(C2CC=C(c3cnc(-c4ccc(C[C@H](NC(=O)c5ccc(C(C)(C)C)s5)C(=O)N[C@H](Cc5cnc[nH]5)C(=O)O)cc4)nc3)CC2)CC1` (stereo partly shown) [Compound 78], for which the EC50 fell in the range of 500 to 2500 nM.

For `CCCC1CCC(C2CC=C(c3cnc(-c4ccc(C[C@H](NC(=O)c5ccc(C(C)(C)C)s5)C(=O)N[C@H](C)C(=O)O)cc4)nc3)CC2)CC1` (stereo partly drawn) [Compound 1, ((2S)-2-(5-(tert-butyl)thiophene-2-carboxamido)-3-(4-(5-(4′-propyl-[1,1′-bi(cyclohexan)]-3-en-4-yl)pyrimidin-2-yl)phenyl)propanoyl)-D-alanine], the EC50 was under 500 nM. Under `CC[C@H]1CC[C@H](C2CCC(c3cnc(-c4ccc(C[C@H](NC(=O)c5ccc(C(C)(C)C)s5)C(=O)N5CC(C(=O)O)C5)cc4)nc3)CC2)CC1` (stereo partly shown) [Compound 125] stands 500 to 2500 nM. `CCCC1CCC(C2CC=C(c3cnc(-c4ccc(C[C@H](NC(=O)c5ccc(C(C)(C)C)s5)C(=O)N5C6CCC5C(C(=O)O)C6)cc4)nc3)CC2)CC1` (stereo partly shown) [Compound 80]: the EC50 lay in the range of 500 to 2500 nM.

Regarding `C[C@@H](NC(=O)[C@H](Cc1ccc(-c2ncc(C3=Cc4ccccc4C3)cn2)cc1)NC(=O)c1ccc(C(C)(C)C)s1)C(=O)O` [Compound 50], the EC50 is 500 to 2500 nM.

With `CC(C)(C)c1ccc(C(=O)N[C@@H](Cc2ccc(-c3ncc(C4=CCC(C5CCCCC5)CC4)cn3)cc2)C(=O)O)s1` (stereo partly shown) [Compound 120], the EC50 was 500 to 2500 nM. As for `CC[C@H]1CC[C@H](C2CC=C(c3cnc(-c4ccc(C[C@H](NC(=O)c5ccc(OC(C)(C)C)cc5)C(=O)N5CC(C(=O)O)C5)cc4)nc3)CC2)CC1` (stereo partly shown) [Compound 95], the concentration for a half-maximal effect (EC50) was in the range of 500 to 2500 nM.
